Active and inactive are the calls of the source.
How the values were obtained:
[1] = target: Cytochrome P450 3A4 (Homo sapiens, UniProt P08684);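 also: CYP3A4 tested as one member of a cytochrome P450 panel screen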
[2] = target: Cytochrome P450 2C9 (Homo sapiens, UniProt P11712)
[3] = tested on: Escherichia coli; experiment: microbe, parasite or virus in culture
[4] = NIH-3T3 fibroblast cytotoxicity, dose response, cytotoxicity control, cell-based, fluorescence, Alamar Blue, secondary assay (AID 2327); format: functional;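 also: NIH-3T3 mouse fibroblasts cultured with fluconazole at 8 µg/mL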
[5] = tested on: Streptococcus sp. 'group A'; experiment: Streptococcus pyogenes SK(-)GAS viability under kanamycin – luminescence, BacTiterGlo, confirmation, counter-screen for streptokinase expression inhibitor project, dose response (AID 1900); format: functional, organism-based
[6] = target: T1, Streptokinase A (Streptococcus pyogenes serotype M1, UniProt P10520); experiment: viability-normalized secreted streptokinase activity reduction – plasminogen activation absorbance, OD405, dose response (AID 1914); format: functional, Streptococcus pyogenes M1 GAS;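 also: secreted streptokinase activity via plasminogen activation per viability signal from cell pellet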
T1 sequence (P10520 whole entry): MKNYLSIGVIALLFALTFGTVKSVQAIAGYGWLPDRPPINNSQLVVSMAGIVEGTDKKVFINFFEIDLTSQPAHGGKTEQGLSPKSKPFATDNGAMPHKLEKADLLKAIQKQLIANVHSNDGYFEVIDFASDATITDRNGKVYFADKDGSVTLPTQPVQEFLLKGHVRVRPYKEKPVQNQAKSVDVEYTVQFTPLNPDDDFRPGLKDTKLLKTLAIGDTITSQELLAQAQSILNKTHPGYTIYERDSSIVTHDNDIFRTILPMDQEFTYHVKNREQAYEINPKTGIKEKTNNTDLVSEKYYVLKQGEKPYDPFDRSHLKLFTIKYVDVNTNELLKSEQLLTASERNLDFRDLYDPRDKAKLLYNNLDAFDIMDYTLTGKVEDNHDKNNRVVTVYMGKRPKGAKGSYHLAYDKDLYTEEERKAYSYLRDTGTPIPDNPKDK

[7] = fluconazole-exposed Candida albicans growth modulators – fluorescence, retest, confirmation (AID 2467); format: functional, cell-based
[8] = tested on: Streptococcus; experiment: GAS UMAA2166 growth inhibition – luminescence, BacTiterGlo, counter-screen for streptokinase expression inhibitor project, dose response (AID 1915); format: functional, organism-based;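 also: potency for reduction of bacterial viability or growth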
[9] = target: T2, Cysteine protease ATG4B (Homo sapiens, UniProt Q9Y4P1); format: functional;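 also: Fluorescence-based dose-response confirmation assay measuring inhibition of ATG4B activity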
T2 sequence (Q9Y4P1 whole entry): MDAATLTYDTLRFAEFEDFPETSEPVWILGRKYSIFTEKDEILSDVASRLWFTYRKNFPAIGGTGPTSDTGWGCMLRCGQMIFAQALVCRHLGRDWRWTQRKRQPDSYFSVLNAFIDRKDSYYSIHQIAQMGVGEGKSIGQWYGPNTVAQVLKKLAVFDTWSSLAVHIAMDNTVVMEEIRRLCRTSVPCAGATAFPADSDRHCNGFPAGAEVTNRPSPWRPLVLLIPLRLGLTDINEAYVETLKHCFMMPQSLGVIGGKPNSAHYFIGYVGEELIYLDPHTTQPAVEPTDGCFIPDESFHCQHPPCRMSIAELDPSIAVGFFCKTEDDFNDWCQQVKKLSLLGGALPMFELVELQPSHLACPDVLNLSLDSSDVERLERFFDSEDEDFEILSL

[10] = target: Phospholipase A2 (Homo sapiens, UniProt P04054); format: functional;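 also: confirmatory dose-response counterscreen on phospholipase A2, testing hits that came from an ultra-high-throughput screen for ATG4B inhibitors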
Sequence of Phospholipase A2 (P04054 whole entry): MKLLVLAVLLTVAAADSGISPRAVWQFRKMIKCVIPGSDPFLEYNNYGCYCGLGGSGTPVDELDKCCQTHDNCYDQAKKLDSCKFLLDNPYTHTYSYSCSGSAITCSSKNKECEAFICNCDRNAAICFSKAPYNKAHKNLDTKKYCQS

[11] = target: T3, Corticotropin-releasing factor receptor 2/Corticotropin-releasing factor-binding protein (Homo sapiens, UniProt P24387+Q13324); experiment: Dose Response confirmation of uHTS hits for small molecule antagonists of the CRF-binding protein and CRF-R2 receptor complex.; format: functional; details: read-out: IC50_Mean
T3 sequence (Q13324 whole entry): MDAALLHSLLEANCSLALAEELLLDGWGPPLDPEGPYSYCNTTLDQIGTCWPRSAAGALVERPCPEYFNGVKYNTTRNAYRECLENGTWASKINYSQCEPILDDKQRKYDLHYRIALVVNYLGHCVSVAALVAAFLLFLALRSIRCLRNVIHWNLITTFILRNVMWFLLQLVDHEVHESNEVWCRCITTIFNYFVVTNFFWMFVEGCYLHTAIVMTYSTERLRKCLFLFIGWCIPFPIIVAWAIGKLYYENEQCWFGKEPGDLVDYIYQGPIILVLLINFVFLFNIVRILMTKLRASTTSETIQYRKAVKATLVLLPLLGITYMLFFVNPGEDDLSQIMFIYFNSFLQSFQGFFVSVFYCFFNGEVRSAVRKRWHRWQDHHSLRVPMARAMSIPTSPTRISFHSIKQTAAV
T3 sequence (P24387 whole entry): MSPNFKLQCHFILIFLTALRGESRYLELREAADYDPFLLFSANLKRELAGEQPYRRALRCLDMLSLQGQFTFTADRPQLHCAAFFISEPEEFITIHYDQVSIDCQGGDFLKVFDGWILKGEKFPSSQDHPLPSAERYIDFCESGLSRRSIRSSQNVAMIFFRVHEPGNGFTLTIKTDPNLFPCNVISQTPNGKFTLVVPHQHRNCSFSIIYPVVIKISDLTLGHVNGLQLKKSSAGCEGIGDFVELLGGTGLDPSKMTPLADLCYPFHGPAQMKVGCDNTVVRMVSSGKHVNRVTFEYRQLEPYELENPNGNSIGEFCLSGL

[12] = target: T3, Corticotropin-releasing factor receptor 2/Corticotropin-releasing factor-binding protein; experiment: activators of CRF receptor 2 with binding protein – uHTS hits, confirmation (AID 602473); format: functional; details: read-out: EC50_Mean
[13] = blockers of CRF-binding protein–CRF-R2 complex – cell-based, uHTS hits, 384-well, dose response (AID 651639); format: functional, Homo sapiens; details: read-out: IC50_Mean
[14] = target: T4, Leucine aminopeptidase (Plasmodium falciparum 3D7, UniProt Q8IL11); experiment: P. falciparum M17LAP inhibitors, primary screen, biochemical, fluorogenic H-Leu-NHMec substrate, 1536-well (AID 1619); format: functional
T4 sequence (Q8IL11 whole entry): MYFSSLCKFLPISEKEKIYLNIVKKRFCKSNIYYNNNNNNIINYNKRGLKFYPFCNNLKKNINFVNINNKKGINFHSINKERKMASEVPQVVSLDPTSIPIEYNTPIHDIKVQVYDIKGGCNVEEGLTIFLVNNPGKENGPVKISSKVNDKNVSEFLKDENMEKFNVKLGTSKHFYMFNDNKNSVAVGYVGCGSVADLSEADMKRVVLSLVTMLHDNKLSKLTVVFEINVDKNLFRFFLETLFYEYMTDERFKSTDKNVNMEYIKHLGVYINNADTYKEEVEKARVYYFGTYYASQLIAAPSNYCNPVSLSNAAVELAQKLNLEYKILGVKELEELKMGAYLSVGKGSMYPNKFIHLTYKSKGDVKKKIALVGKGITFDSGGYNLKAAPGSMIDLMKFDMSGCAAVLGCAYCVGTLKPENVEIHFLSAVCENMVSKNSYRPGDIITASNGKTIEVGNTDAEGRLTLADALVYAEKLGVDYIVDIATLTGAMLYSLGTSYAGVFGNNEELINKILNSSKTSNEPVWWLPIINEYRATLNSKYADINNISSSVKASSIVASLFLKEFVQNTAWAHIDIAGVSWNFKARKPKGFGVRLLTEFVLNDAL

[15] = target: T5, Carboxy-terminal domain RNA polymerase II polypeptide A small phosphatase 1 (Homo sapiens, UniProt Q9GZU7); experiment: CTDSP1 inhibitors, concentration-response, biochemical, absorbance readout, ultra-high-throughput screen actives (AID 540297); format: functional
T5 sequence (Q9GZU7 whole entry): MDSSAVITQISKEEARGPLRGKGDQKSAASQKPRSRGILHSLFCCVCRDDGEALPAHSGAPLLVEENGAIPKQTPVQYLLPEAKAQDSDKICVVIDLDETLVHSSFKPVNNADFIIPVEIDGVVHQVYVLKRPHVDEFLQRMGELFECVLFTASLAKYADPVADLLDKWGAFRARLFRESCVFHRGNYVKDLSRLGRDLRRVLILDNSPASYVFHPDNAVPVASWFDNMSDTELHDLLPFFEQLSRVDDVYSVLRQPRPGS

[16] = HEK-293T viability loss after treatment – luminescence, T-cell screen hits, cytotoxicity control for TCR NF-kB inhibitor project, dose response (AID 489026); format: functional, cell-based;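 also: cells exposed to compound about 14 hours before the viability readout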

Sequence of Cytochrome P450 3A4 (P08684 whole entry): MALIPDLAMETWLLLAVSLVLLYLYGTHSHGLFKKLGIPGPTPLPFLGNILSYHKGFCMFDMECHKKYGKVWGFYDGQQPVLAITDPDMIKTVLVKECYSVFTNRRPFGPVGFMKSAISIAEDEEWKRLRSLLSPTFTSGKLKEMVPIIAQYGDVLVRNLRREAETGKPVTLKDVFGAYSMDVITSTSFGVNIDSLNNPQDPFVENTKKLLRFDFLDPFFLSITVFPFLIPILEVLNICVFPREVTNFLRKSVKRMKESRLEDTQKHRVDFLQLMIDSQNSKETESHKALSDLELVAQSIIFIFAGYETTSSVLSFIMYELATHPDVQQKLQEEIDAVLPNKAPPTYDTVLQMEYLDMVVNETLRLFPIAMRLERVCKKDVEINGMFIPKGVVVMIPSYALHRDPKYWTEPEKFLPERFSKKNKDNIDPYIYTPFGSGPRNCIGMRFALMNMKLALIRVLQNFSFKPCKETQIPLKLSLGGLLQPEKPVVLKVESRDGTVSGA
Sequence of Cytochrome P450 2C9 (P11712 whole entry): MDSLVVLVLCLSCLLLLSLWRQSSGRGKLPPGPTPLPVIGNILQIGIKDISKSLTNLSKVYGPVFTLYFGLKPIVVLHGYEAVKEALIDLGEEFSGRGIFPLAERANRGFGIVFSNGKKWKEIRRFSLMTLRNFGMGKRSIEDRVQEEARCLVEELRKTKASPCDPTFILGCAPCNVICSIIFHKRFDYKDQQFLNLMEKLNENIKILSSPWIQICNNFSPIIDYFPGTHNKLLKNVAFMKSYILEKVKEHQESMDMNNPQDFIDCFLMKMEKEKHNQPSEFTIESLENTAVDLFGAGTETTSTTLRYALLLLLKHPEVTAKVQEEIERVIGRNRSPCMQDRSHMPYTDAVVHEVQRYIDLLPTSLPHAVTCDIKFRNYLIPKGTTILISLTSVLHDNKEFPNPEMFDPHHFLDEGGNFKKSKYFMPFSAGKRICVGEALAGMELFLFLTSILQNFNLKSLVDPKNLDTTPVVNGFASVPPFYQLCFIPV

For `COC(=O)Cc1cc(O)n2nc(C)c(-c3ccccc3)c2n1`, the AC50 [1] was “inconclusive”.

With `O=C(c1ccccc1F)c1cn(Cc2ccccc2)c2ccccc12` the AC50 [2] was 35.5 µM (inconclusive) and the AC50 [1] was “inconclusive”.

With `CC(=O)Oc1ccc(C(=O)Cc2ccccn2)c(O)c1` the AC50 [3] was 27.9 µM (active).

In the case of `CC(C)C(Sc1nc(-c2ccccc2)cc(-c2ccccc2)c1C#N)C(=O)O` (stereo not given), the EC50 [4] is reported as 26.8 µM (active), the EC50 [5] is reported as 7.77 µM (active) and the EC50 [6] is reported as 10.1 µM (active). For the same molecule, the EC50 [7] was 2.61 µM (active), the EC50 [8] was 9.19 µM (active) and the IC50 [9] was 11.3 µM (active). The IC50 [10] was 9.87 µM (active), the IC50 [11] was 6.76 µM (active) and the EC50 [12] was 35.7 µM (active). For the same molecule, the IC50 [13] was > 20 µM (inactive).

In the case of `O=C(O)COc1ccccc1/C=C1\SC(=S)N(/N=C/c2ccccc2O)C1=O`, the IC50 [14] is reported as 21.3 µM (active), the IC50 [9] is reported as 27.1 µM (inactive) and the IC50 [10] is reported as 32.1 µM (inactive). The IC50 [15] was 8.53 µM (active).

In the case of `O=C(Oc1c(-c2ccccc2)c(=O)n2c3c(cccc13)CC2)c1ccc(F)cc1`, the IC50 [9] is reported as 14.1 µM (active) and the IC50 [10] is reported as 10.9 µM (active).

In the case of `COC(=O)C(C)Oc1cc(C)cc2oc(=O)c3c(c12)CCCC3` (stereo not given), the AC50 [3] is reported as 28.2 µM (active).

With `Cc1c(C(=O)N/N=C/c2ccc(Cl)cc2)[nH]c2ccc(Cl)cc12` the EC50 [5] was 2.61 µM (active), the EC50 [6] was > 150 µM (not active) and the EC50 [8] was 10.9 µM (active). For the same molecule, the IC50 [16] was > 80 µM (inactive).
